Assay results reported in patent EP3876933B1, “NEUTROPHIL INFLAMMATION INHIBITOR AND USES THEREOF” (Chang Gung University of Science and Technology, priority 2018, dated 2020).

Tests used:
human neutrophils [1] = test: Superoxide anion (O2˙-) generation in fMLF/CB-activated human neutrophils (SOD-inhibitable ferricytochrome c reduction); assay type: cell-based; conditions: for IC50 / inhibition at 10 µM: Neutrophil; for inhibition at 10 µM / Superoxide Anion Inhibition %: at 10 µM concentration
Method: (§1) Human neutrophils were obtained in lipopolysaccharide-free conditions by means of dextran sedimentation and Ficoll centrifugation.
O2˙^- production was determined based on the SOD-inhibitable reduction of ferricytochrome c. Briefly, neutrophils (6 × 10^5/mL) were treated with a candidate compound at 37 °C at various concentrations (0.001 to 10 µM) for 5 min after being supplementing with 0.5 mg/mL ferricytochrome c and 1 mM Ca^2+. Cells were then activated with fMLF (0.1 µM) for 10 min in the pre-process of cytochalasin B (CB, 1 µg/mL) for 3 min. Changes in absorbance with the reduction of ferricytochrome c at 550 nm were continuously monitored in a double-beam, six-cell positioner spectrophotometer with constant stirring (Hitachi U-3010, Tokyo, Japan). Calculations were based on the differences in the reactions with and without SOD (100 U ml^-1) divided by the extinction coefficient for the reduction of ferricytochrome c (ε = 21.1 mM^-1/10 mm).

human neutrophils [2] = test: Elastase release in fMLF/CB-activated human neutrophils (Methoxysuccinyl-Ala-Ala-Pro-Val-p-nitroanilide substrate); assay type: cell-based; conditions: Neutrophil; for inhibition at 10 µM: at 10 µM concentration
Method: as §1
Methoxysuccinyl-Ala-Ala-Pro-Val-p-nitroanilide was employed as the elastase substrate for the determination of elastase release. Briefly, after supplementation with Methoxysuccinyl-Ala-Ala-Pro-Val-p-nitroanilide (100 µM), neutrophils (6 × 10^5/mL) were equilibrated at 37 °C for 2 min and incubated with a candidate compound at various concentrations for 5 min. Cells were then activated with fMLF (0.1 µM) for 10 min in the pre-process of CB (0.5 µg/mL) for 3 min, and changes in absorbance at 405 nm were continuously monitored to evaluate elastase release. Results are expressed as the percentage of elastase release in the drug-free control group, DMSO.

[3] = tested on: imiquimod-induced psoriasis; test: Imiquimod-induced psoriasis-like skin inflammation in mice (phenotype, H&E, immunohistochemistry); assay type: in vivo, BALB/c mice; conditions: 20 mg/kg intraperitoneal, 30 min before 5% IMQ cream, every day for 7 days
Method: (§2) Male BALB/c mice aged 7-8 weeks were purchased from BioLASCO (Taipei, Taiwan) and maintained in a room with 12 hr light/dark cycles. Standard laboratory chow and water were available ad libitum. All animal experimental procedures were performed in accordance with guidelines and approved by the Institutional Animal Care and Use Committee of Chang Gung University.
(§3) Male BALB/c mice aged 7-8 weeks were used for the development of the imiquimod-induced psoriatic-like plaque model. The dorsal skin of the mice were shaved and received a daily topical dose of 62.5 mg of 5% imiquimod (IMQ) cream (Aldara, MEDA Pharma, Sweden) with or without a test compound (e.g., HKI-4971) treatment by intraperitoneal injection for 7 consecutive days.
Tissue samples were fixed in 10% neutral buffered formalin and embedding in paraffin blocks. Sections of the samples were prepared at 5 µm thickness and stained with hematoxylin and eosin (H&E). For immunohistochemistry staining, the sections were incubated with primary antibodies against Ly6g, MPO, and ki67 then the secondary antibody was applied for the detection of the primary antibody according to the manufacturer's instructions of the SuperPicture Polymer Detection Kit (Thermo Fisher, USA). Finally, the section slides were subsequently stained with DAB chromogen and counterstained with hematoxylin. […]

[4] = Liver and kidney function (blood ALT, AST, BUN, creatinine) in imiquimod-induced mice; assay type: in vivo, BALB/c mice; conditions: HKI-4971 20 mg/kg intraperitoneal, alone or in combination with IMQ; n=3
Method: as §3
In this example, the effect of HKI-4971 (or compound 13) on the development of psoriasis was investigated using the well-established psoriasis animal model, in which imiquimod (IMQ) was used to induce psoriasis-like skin inflammation. Briefly, BALB/c mice are pre-treated by intraperitoneal injection of HKI-4971 (20 mg/kg) for 30 min before 5% IMQ cream was topically administered onto the back of the mice every day for 7 days. Then, skin samples taken from these animals were subjected to microscopy examination and immunohistochemistry staining, while blood samples were subjected to analysis for liver and kidney functions. Results are depicted in FIGs 1 to 3.
Blood samples taken from IMQ- or IMQ+HKI-4971 treated animals were analyzed for the levels of alanine aminotransferase and aspartate transaminase, which were used as indicators for assessing liver function; and the levels of blood […] nitrogen (BUN) and creatinine (CRE), which were used as indicators for assessing the kidney function. […]

LPS-induced ALI = test: LPS-induced acute lung injury (ALI) in mice (lung MPO activity, H&E, immunohistochemistry); assay type: in vivo, BALB/c mice; conditions: 20 mg/Kg intravenous 1 hr before intratracheal LPS (2 mg/Kg), 5 hrs
Method: as §2
Mice were pre-treated with a candidate compound (e.g., HKI-4971), which was dissolved in 50 µl saline solution containing 10% DMSO and 20% Kolliphor EL (Sigma-Aldrich, USA), by intravenous injection. […]
Lung tissues were homogenized in PBS (50 Mm, pH 6.0) containing 0.5% (w/v) hexadecyltrimethylammonium bromide (HETAB) (Sigma-Aldrich, USA) by using the MagNA Lyser Instrument (Roche, Germany), and was further centrifuged at 12,000 ×g for 20 min at 4°C to remove the insoluble material. The peroxidase activity was measured as the oxidation of o-Dianisidine dihydrochloride (Sigma-Aldrich, USA). […] The absorption was determined spectrophotometrically at 405 nm. […]
In this example, the Gram-negative bacterial endotoxin LPS induced ALI in mice was employed to mimic ARDS in human, and the effect of HKI-4971 was evaluated. […]

[5] = FMLP/CB-induced human neutrophils, mean ± S.E.M. (n = 3-5), read-out: Superoxide Anion IC50
[6] = FMLP/CB-induced human neutrophils, mean ± S.E.M. (n = 3-5)
[7] = FMLP/CB-induced human neutrophils, mean ± S.E.M. (n = 3-5), read-out: Elastase Release IC50

SMILES	IC50 (human neutrophils [1]; Homo sapiens, neutrophils in response to fMLF, Table 2, read-out: IC50 for suppressing the superoxide anion generation)	IC50 (human neutrophils [1]; [5])	IC50 (human neutrophils [2]; Homo sapiens, neutrophils in response to fMLF, Table 2, read-out: IC50 for suppressing elastase release)	IC50 (human neutrophils [2]; [7])	inhibition at 10 µM (human neutrophils [1]; [6])	inhibition at 10 µM (human neutrophils [2]; [6])	markers for cell proliferation (ki-67) and for neutrophils (Ly6g and MPO), immunostaining of skin samples [3]	severity or progression of IMQ-induced psoriasis [3]	functions of liver or kidney (alanine aminotransferase, aspartate transaminase, BUN, CRE in blood) [4]	LPS-induced neutrophil infiltration and lung injury (H&E and neutrophil markers in lung sections) (LPS-induced ALI)	MPO activity in lung tissues (LPS-induced ALI; n=3)	Superoxide Anion Inhibition % (human neutrophils [1]; [6])
COc1ccc(Nc2nc3ccccc3c3onc(N)c23)cc1 [Compound 23, 4-(4-Methoxyanilino)isoxazolo[4,5-c]quinolin-3-amine]	–	8.59 ± 0.29 µM	–	> 10 µM	59.1 ± 2.03%	-9.67 ± 3.44%	–	–	–	–	–	–
CSc1ccc(Nc2nc3ccccc3c3onc(N)c23)cc1 [Compound 25, 4-(4-Methylthioanilino)isoxazolo[4,5-c]quinolin-3-amine]	–	–	–	> 10 µM	–	18.1 ± 3.97%	–	–	–	–	–	enhanced
COc1cc(Nc2nc3ccccc3c3onc(N)c23)cc(OC)c1OC [Compound 24, 4-(3,4,5-Trimethoxyanilino)isoxazolo[4,5-c]quinolin-3-amine]	–	> 10 µM	–	> 10 µM	17.1 ± 3.77%	-10.6 ± 3.81%	–	–	–	–	–	–

Molecules with a lower IC50 (human neutrophils [2]; [7]), results first:

IC50 (human neutrophils [1]; Homo sapiens, neutrophils in response to fMLF, Table 2, read-out: IC50 for suppressing the superoxide anion generation)	IC50 (human neutrophils [1]; [5])	IC50 (human neutrophils [2]; Homo sapiens, neutrophils in response to fMLF, Table 2, read-out: IC50 for suppressing elastase release)	IC50 (human neutrophils [2]; [7])	SMILES	inhibition at 10 µM (human neutrophils [1]; [6])	inhibition at 10 µM (human neutrophils [2]; [6])	markers for cell proliferation (ki-67) and for neutrophils (Ly6g and MPO), immunostaining of skin samples [3]	severity or progression of IMQ-induced psoriasis [3]	functions of liver or kidney (alanine aminotransferase, aspartate transaminase, BUN, CRE in blood) [4]	LPS-induced neutrophil infiltration and lung injury (H&E and neutrophil markers in lung sections) (LPS-induced ALI)	MPO activity in lung tissues (LPS-induced ALI; n=3)	Superoxide Anion Inhibition % (human neutrophils [1]; [6])
–	–	–	6.23 ± 0.52 µM	Nc1noc2c1c(Nc1ccc(C(F)(F)F)cc1)nc1ccccc12 [Compound 30, 4-(4-Trifluoromethylanilino)isoxazolo[4,5-c]quinolin-3-amine]	–	81.5 ± 6.97%	–	–	–	–	–	enhanced
~0.0037 µM	0.00369 ± 0.00174 µM	~0.032 µM	0.0321 ± 0.0174 µM	Cn1nc(N)c2c(Nc3ccc(O)cc3)nc3ccccc3c21 [Compound 13, 4-(4-Hydroxyanilino)-1-methyl-1H-pyrazolo[4,3-c]quinolin-3-amine]	88.1 ± 1.19%	105 ± 2.53%	reduced	reduce the severity or progression	did not result in significant damage	significantly alleviated	suppressed	–
